Source: patent publication US20160115192A1, “ANTIOXIDANT, ANTI-INFLAMMATORY AND ANTICANCER DERIVATIVES OF TRIPTOLIDE AND NANOSPHERES THEREOF” (CEDARS-SINAI MEDICAL CENTER, priority 2013, published 2016)

Legend:
[1] = 30 minutes after administration; cited from earlier work
[2] = cited from earlier work
B7-H1 = conditions: known effect, background; cited from earlier work
B7-H1 (PD-L1) = assay: Inhibition of interferon-γ-dependent expression of B7-H1 (PD-L1) on cancer cells; format: cell-based

| SMILES | lactone form hydrolyzed to an open ring [1] | solubility in water [2] | expression of B7-H1 by cancer cells (B7-H1) | inhibitory effect on interferon-γ-dependent expression of B7-H1 (PD-L1) (B7-H1 (PD-L1); MDA-MB-231 triple negative breast cancer cell, FIG. 9) | inhibitory effect on interferon-γ-dependent expression of B7-H1 (PD-L1) (B7-H1 (PD-L1); MDA-MB-468 triple negative breast cancer cell, FIG. 10) | inhibitory effect on interferon-γ-dependent expression of B7-H1 (PD-L1) (B7-H1 (PD-L1); U-87 MG glioma cells, FIG. 8) | inhibitory effect on interferon-γ-dependent expression of B7-H1 (PD-L1) (B7-H1 (PD-L1); U-87 stem-like cells, FIG. 5) | inhibitory effect on interferon-γ-dependent expression of B7-H1 (PD-L1) (B7-H1 (PD-L1); U-251 glioma cell, FIG. 7) | inhibitory effect on interferon-γ-dependent expression of B7-H1 (PD-L1) (B7-H1 (PD-L1); cancer stem cell (CSC-5), FIG. 6) |
| --- | --- | --- | --- | --- | --- | --- | --- | --- | --- |
| CC[C@@]1(O)C(=O)OCc2c1cc1n(c2=O)Cc2cc3ccccc3nc2-1 [camptothecin, (S)-4-ethyl-4-hydroxy-1H-pyrano-[3′,4′:6,7]indolizino[1,2-b]quinoline-3, 14(4H,12H)-dione] | 50% | essentially insoluble |  |  |  |  |  |  |  |
| CC(C)[C@]12O[C@H]1[C@@H]1O[C@]13[C@]1(O[C@H]1C[C@H]1C4=C(CC[C@@]13C)C(=O)OC4)[C@@H]2O [triptolide, Triptolide] |  |  | inhibit | inhibitory effect | inhibitory effect | Inhibitory effect | inhibitory effect | inhibitory effect | inhibitory effect |
